From the NIST ThermoML archive (doi:10.1016/j.jct.2014.02.024)
Numbers after ± are expanded uncertainties.

How the values were obtained:
[1] = 101.3 kPa, Liquid; for viscosity: Capillary tube (Ostwald / Ubbelohde) method; for mass density: Pycnometric method
[2] = mn = molality of the nth substance listed, in mol/kg; details: 101.3 kPa, Liquid, m2 = 0; for viscosity: Capillary tube (Ostwald / Ubbelohde) method; for mass density: Pycnometric method

| viscosity ([1]; 275.15 K) [mPa·s] | mass density ([1]; 275.15 K) [kg/m3] | viscosity ([1]; 277.15 K) [mPa·s] | mass density ([1]; 277.15 K) [kg/m3] | viscosity ([1]; 279.15 K) [mPa·s] | mass density ([1]; 279.15 K) [kg/m3] | viscosity ([2]; 275.15 K) [mPa·s] | mass density ([2]; 275.15 K) [kg/m3] | viscosity ([2]; 277.15 K) [mPa·s] | mass density ([2]; 277.15 K) [kg/m3] | viscosity ([2]; 279.15 K) [mPa·s] | mass density ([2]; 279.15 K) [kg/m3] | SMILES |
| --- | --- | --- | --- | --- | --- | --- | --- | --- | --- | --- | --- | --- |
| 1.674 ± 0.036 | 999.94 ± 0.92 | 1.567 ± 0.034 | 999.97 ± 0.92 | 1.472 ± 0.032 | 999.94 ± 0.92 | – | – | – | – | – | – | O [water] |
| – | – | – | – | – | – | 1.674 ± 0.036 | 999.94 ± 0.92 | 1.567 ± 0.034 | 999.97 ± 0.92 | 1.472 ± 0.032 | 999.94 ± 0.92 | O [water] + NC(=O)c1cccnc1 |
| – | – | – | – | – | – | 1.674 ± 0.036 | 999.94 ± 0.92 | 1.567 ± 0.034 | 999.97 ± 0.92 | 1.472 ± 0.032 | 999.94 ± 0.92 | O [water] + O=C(O)c1cccnc1 |
